One data set concerns female CD1 mice. In words: Facilitatory effect on urinary glucose excretion after oral administration. The conditions noted are these: 3 mg/kg po. The format is in vivo. The protocol:
As experimental animal, female CD1 mice (CDM or Charles River) were used. A test compound was dissolved in the vehicle (5% N-methyl pyrrolidone, 20% PEG 400, 75% 20 mM Na4P2O7 buffer, v/v/v) at the concentration of 1 mg/mL After the body weights of the mice were measured and the mice randomized, the test article was orally administered at the dose of 1 mg/kg, 3 mg/kg and 10 mg/kg. For control, just the vehicle (5% N-methyl pyrrolidone, 20% PEG 400, 75% 20 mM Na4P2O7 buffer, v/v/v) was orally administered. The oral administration was performed with gastric tube for mice and a 1 mL syringe. The minimum count in one group was 3 but could reach 12 for some groups. Collection of the urine was performed manually by gentling massaging the abdomen in order to collect urine (3 μL) via a calibrated pipette. Urine was collected at 1, 2, 4, 6, 8 and then 16, 18, 20, 22, 24, 26 and 28 hrs. The urine glucose concentration was measured using a WAKO glucose kit as follows: 3 μL of urine was deposited into a 96-well micro plate for spectrometric readout. The urine aliquot was diluted with 350 μL of the WAKO working solution. […] The absorbance of the 96-well plates were then read at 505 nm using a BioTek SynergyMX plate fluorometer/absorbance photometer and the glucose concentration was calculated. […]

For data set [1], the target named is Mushroom Tyrosinase. Put plainly: Tyrosinase inhibition, concentration series and IC50 (assay f). The format is biochemical. The conditions noted are these: for IC50: Concentration Tyrosinase 100 U/mL, from linear regression of % activity versus concentration; for Absorbance (477 nm): 1 h 30 at 37° C.; for % activity: witness solution = 100%. The protocol: The protocol performed is the same as in assay e. Solution A (1,000 U/mL mother solution of Tyrosinase) was prepared by dissolving all of 50 kU Mushroom Tyrosinase in 1 mL 100 mM pH6.5 bis Tris buffer and QS to 50 mL with milliQ water. Bis Tris buffer (100 mM pH6.5 bis Tris buffer) was prepared by dissolving 2.09 g of Bis Tris in milliQ water and QS to 100 mL. pH was adjusted at 6.5 using hydrochloric acid. Solution B (mother solution of Tyrosine) was prepared by dissolving 20 mg of Tyrosine in milliQ water and QS to 20 mL. Stock solution of compound 31 was prepared as follow: 10 mg of compound 31 was dissolved in Bis Tris buffer up to 1 ml. Stock solution of β-arbutin was prepared as follow: 20 mg of compound β-arbutin was dissolved in Bis Tris buffer up to 1 ml. The solutions were incubated for 1 h 30 at 37° C., then quickly cooled to 4° C. 100 μL of each solution were deposited on 96-well plate. The absorbance of the different solutions were measured at 477 nm (Molecular Devices: Spectra Max 340PC). The different solutions were prepared as described in the different tables below and their absorbances were reported. The absorbance of witness solution (without inhibitor) was set at 100% of enzymatic activity, allowing us to determine the percentage of enzymatic activity of the different solutions. Data have been plotted (% of activity versus concentration of inhibitors) and the linear regression of the curve was used to calculate the […] of both compounds.

The test system of data set [2] is Mushroom Tyrosinase. In words: Inhibition of Tyrosine-Tyrosinase reaction, absorbance at 477 nm (assay e). The format is biochemical. The note with it: test compound n = 5·10^−5 mol; Solution A 1 mL, Solution B 0.5 mL, buffer 0.5 mL; witness solution 0.4354. The protocol: Inhibition of tyrosinase, i.e. inhibition of the hydroxylation of Tyrosine into DOPA, was measured by visible spectrophotometry, and more specifically by measuring the absorbance at 477 nm, indicative of the amount of melanine produced in vitro from the Tyrosine substrate by Tyrosinase. In order to make sure that the measured absorbance is proportional to the enzymatic activity in the range of studied concentrations, five standard solutions were prepared as follows. Absorbance has been measured on a Perkin Elmer UV/Vis Spectrometer Lambda 12. Solution A (1,000 U/mL mother solution of Tyrosinase) was prepared by dissolving 40 mg of 1,250 U/mg Mushroom Tyrosinase in 1 mL 100 mM pH6.5 bis Tris buffer and QS to 50 mL with milliQ water. Bis Tris buffer (100 mM pH6.5 bis Tris buffer) was prepared by dissolving 2.09 g of Bis Tris in milliQ water and QS to 100 mL. Solution B (mother solution of Tyrosine) was prepared by dissolving 100 mg of Tyrosine in milliQ water and QS to 100 mL. The standard solutions were incubated for 2 h at 37° C., then quickly cooled to 4° C. […] The following test solutions were prepared and their absorbance was measured at 477 nm: […]

In data set [3] the test system is 18 hrs fasted female CD1 mice. Put plainly: Decrease of blood glucose excursions following oral glucose challenge (oral glucose tolerance test). The format is in vivo. As to the method:
As experimental animal, 18 hrs fasted female CD1 mice (CDM or Charles River) were used. A test compound was dissolved in the vehicle (5% N-methyl pyrrolidone, 20% PEG 400, 75% 20 mM Na4P2O7 buffer, v/v/v) at the concentration of 1 mg/mL. After the body weights of the mice were measured and the mice randomized, the test article was orally administered at the dose of 1 mg/kg, 3 mg/kg and 10 mg/kg. For control, just the vehicle (5% N-methyl pyrrolidone, 20% PEG 400, 75% 20 mM Na4P2O7 buffer, v/v/v) was orally administered. 15 min after this oral administration, a 20% glucose solution in deionised water was orally administered to all mice. The oral administration was performed with gastric tube for mice and a 1 mL syringe. The minimum count in one group was 3 but could reach 5 for some groups. Collection of the blood was performed via the saphenous vein. Blood was collected at 5, 10, 30, 45, 60 and 120 min post glucose challenge. One experiment consisted in administrating the test article 18 hrs prior to a glucose challenge i.e. 18 hrs post po of test article. The blood glucose concentration was measured using Johnson and Johnson's OneTouch® Ultra Blood Glucose Monitoring System. The glucose concentrations for controls and test articles at the different time points were averaged using Excel 2007 and plotted using GraphPad Prism 5.

Data set [4] relates to β-glucosidase from Almonds. In words: Enzymatic stability against glycosidase, HPLC analysis after incubation with β-glucosidase. The format is in vitro ADME. The note with it: 4 h at 37° C., phosphate buffer pH 7, 10 U β-glucosidase. The source says:
The enzymatic stability assay has been performed with compound 26 according to the invention and compound A used as a reference compound to control the efficacy of the β-glucosidase. The sergliflozin-A stability has also been evaluated in order to compare the improvement of metabolic stability obtained through the replacement of the intracyclic oxygen atom of the glucose moiety by a CF2 moiety.
All the compounds have been treated with β-glucosidase. The stability of compound 26 and Sergliflozin-A has been assessed by HPLC analysis after incubation with β-glucosidase.
A Gilson HPLC system was used, equipped with a manual injection system (V=20 μL), a Diode Array Detector (DAD172) set at a wavelength of 230 nm and a 150 mm×4.6 mm, 5 μm HICHROM Kromasil 100-5C18 reverse phase column. A linear HPLC binary gradient was used as follows: solvent A was water and solvent B was acetonitrile. Following the injection of 20 μL of a sample, solvent B was held at 20% for 3 min, increased from 20% to 90% in 17 min, held at 90% for 4 min; finally, solvent B was decreased back to 20% over 5.5 min and was held at 20% for 3.5 min.
The procedure has been adapted from J. Agric. Food Chem. 2005, 53, 4918-4924.
100 μL of a solution of compound 26 at 4.5·10^−4 mol·L^−1 in acetonitrile was added to a solution containing 800 μL of phosphate buffer (73173 Fluka, pH 7) in the presence of β-glucosidase from Almonds (10 U, 100 μL of a 5.6 mg·mL^−1 solution in phosphate buffer, (G4511sigma 18.7 U per mg)) and was kept 4 h at 37° C.
100 μL of a solution of sergliflozin-A at 4.5·10^−4 moL·L^−1 in acetonitrile has been treated in the presence of β-glucosidase following the same process.
In parallel, 100 μL of a solution of p-nitrophenyl-β-glucoside (compound A) at 4.5·10^−4 mol·L^−1 in phosphate buffer (73173 Fluka, pH 7) was added to a solution containing 700 μL of phosphate buffer and 100 μL of acetonitrile, with the presence of β-glucosidase from Almonds (10 U, 100 μL of a 5.6 mg·mL^−1 solution in phosphate buffer, (G4511 sigma 18.7 U per mg)) and was kept 4 h at 37° C. During the process in the presence of β-glucosidase, a yellow coloration was observed that underlines the decomposition of compound. A.
HPLC of compound 21 (FIG. 7), compound 26 (FIG. 8) and Sergliflozin-A (FIG. 10) have been performed to follow up in the experiments the formation of compound 21 (the aglycone part) implying a degradation of the starting material.
In order to evaluate the percentage of degradation, a calibration has been done on compound 21 giving the following results:
Data have been plotted (Area % versus concentration) and the linear regression obtained was characterized by the equation y=53629x and a R^2=0.994. […]

Where [5] appears, read: Inhibitor Concentration 0.67 mg/mL.
The mark [6] stands for this setting: Inhibitor Concentration 1.33 mg/mL.
Where [7] appears, read: Inhibitor Concentration 2.00 mg/mL.
Where [8] appears, read: Inhibitor Concentration 2.67 mg/mL.
Setting [9] is: Inhibitor Concentration 3.33 mg/mL.
Setting [10] is: Inhibitor Concentration 0.17 mg/mL.
Where [11] appears, read: Inhibitor Concentration 0.33 mg/mL.
Where [12] appears, read: Inhibitor Concentration 0.50 mg/mL.
The mark [13] stands for this setting: Inhibitor Concentration 0.83 mg/mL.

Converted amounts (≈) assume the structure as drawn.

On to `CCOc1ccc(Cc2cc([C@H]3[C@H](O)[C@@H](O)[C@H](O)[C@@H](CO)[C@@H]3O)ccc2Cl)cc1` [compound 9 of WO 2009/1076550], for which, in the data set on female CD1 mice (16 to 28 hours after administration (FIG. 6)), the “glucosuria detected in the same time period (up to 24 hrs)” value is on record as “none could be detected”.

On Mushroom Tyrosinase [1], `OC[C@H]1O[C@@H](Oc2ccc(O)cc2)[C@H](O)[C@@H](O)[C@@H]1O` [β-Arbutin] came in with an IC50 of 1100 µg/mL (≈ 4040 µM). For the same compound, the “Absorbance (477 nm)” value is listed as 0.5010 in the data set on Mushroom Tyrosinase [1] (setting [5]); 0.3040 in the data set with Mushroom Tyrosinase [1] (setting [6]); 0.2380 with Mushroom Tyrosinase [1] (setting [7]); 0.2035 with Mushroom Tyrosinase [1] (setting [8]); 0.1970 in the data set with Mushroom Tyrosinase [1] (setting [9]). Besides, the “% activity” value was 66.62% with Mushroom Tyrosinase [1] (setting [5]); 40.43% in the data set with Mushroom Tyrosinase [1] (setting [6]); 31.65% with Mushroom Tyrosinase [1] (setting [7]); 27.06% in the data set on Mushroom Tyrosinase [1] (setting [8]); 26.20% in the data set on Mushroom Tyrosinase [1] (setting [9]).

The compound `OC[C@@H]1[C@@H](O)[C@H](O)[C@@H](O)[C@H](Oc2ccc(O)cc2)C1(F)F` [Compound 31] had an IC50 against Mushroom Tyrosinase [1] of 328 µg/mL (≈ 1070 µM). Also, the “Absorbance (477 nm)” value with Mushroom Tyrosinase [1] (setting [10]) is listed as 0.5855; with Mushroom Tyrosinase [1] (setting [11]), 0.3535; in the data set with Mushroom Tyrosinase [1] (setting [12]) it was 0.255; in the data set with Mushroom Tyrosinase [1] (setting [5]) it was 0.220; in the data set on Mushroom Tyrosinase [1] (setting [13]) it was 0.200; with Mushroom Tyrosinase [2], 0.1292. Moreover, the “% activity” value with Mushroom Tyrosinase [1] (setting [10]) is given as 81.55%; with Mushroom Tyrosinase [1] (setting [11]) it was 49.23%; in the data set on Mushroom Tyrosinase [1] (setting [12]), 35.52%; in the data set with Mushroom Tyrosinase [1] (setting [5]), 30.57%; in the data set on Mushroom Tyrosinase [1] (setting [13]), 27.86%.

Turning to `CCOc1ccc(Cc2cc([C@H]3[C@H](O)[C@@H](O)[C@H](O)[C@@H](CO)C3(F)F)ccc2Cl)cc1` [Compound 16], in data set [3] (3 mg/kg po administered 18 hrs prior to glucose challenge (FIG. 4)), the “blood glucose excursions following glucose challenge” value was “still reduced blood glucose excursions”. Besides, in data set [3] (1, 3 and 10 mg/kg po, normal mice, glucose 15 min after dosing (FIG. 3)), the “blood glucose levels following glucose challenge” value is on record as “reduced blood glucose levels in a dose-dependent manner”. Moreover, the duration of glucosuria with female CD1 mice (compared to Dapagliflozin (FIG. 5)) is more than 24 h.

On to `COc1ccc(Cc2ccccc2O[C@H]2[C@H](O)[C@@H](O)[C@H](O)[C@@H](CO)C2(F)F)cc1` [Compound 26], for which the “degradation in the presence of β-glucosidase (in words)” value in data set [4] was “no degradation occurs”.

As for `Oc1ccc(O)cc1` [Hydroquinone], in the data set with Mushroom Tyrosinase [2], the “Absorbance (477 nm)” value was 0.1528.

Consider `O=[N+]([O-])c1ccc(O[C@@H]2O[C@H](CO)[C@@H](O)[C@H](O)[C@H]2O)cc1` [compound A, p-nitrophenyl-β-glucoside], for which, in data set [4], the “degradation in the presence of β-glucosidase (in words)” value was “decomposition”.

Values taken from patent publication US9434670B2, “Family of aryl, heteroaryl, O-aryl and O-heteroaryl carbasugars” (TFCHEM, priority 2011, dated 2016).
